In patent US9150543B2, “Substituted indolyl alkyl amino derivatives as inhibitors of histone deacetylase” (Janssen Pharmaceutica N. V., priority 2004, dated 2015):
In brackets after ≈: the same amount, converted by molar mass.

Tests used:
[1] = Solubility/stability at different pH's, chemiluminescent nitrogen detector (C.3.b); format: physicochemical; details: aqueous buffer; pH = 2.3
Description: In a second method the solubility of a compound at different pH's can be measured with the use of a Chemiluminescent Nitrogen Detector (see example C.3.b).
The solubility of a compound, at different pH's, can also be measured with the use of a chemiluminescent nitrogen detector. (see Table F-3).

[2] = tested on: A2780 ovarian carcinoma cells; assay: Antiproliferative activity on A2780 cells, MTT (C.2); format: cell-based; details: Homo sapiens, 96 h, four days of incubation, read-out: Cellular activity pIC50 C.2 (converted)
Experimental: All compounds tested were dissolved in DMSO and further dilutions were made in culture medium. Final DMSO concentrations never exceeded 0.1% (v/v) in cell proliferation assays. Controls contained A2780 cells and DMSO without compound and blanks contained DMSO but no cells. MTT was dissolved at 5 mg/ml in PBS. A glycine buffer comprised of 0.1 M glycine and 0.1 M NaCl buffered to pH 10.5 with NaOH (1N) was prepared (all reagents were from Merck).
The human A2780 ovarian carcinoma cells (a kind gift from Dr. T. C. Hamilton [Fox Chase Cancer Centre, Pennsylvania, USA]) were cultured in RPMI 1640 medium supplemented with 2 mM L-glutamine, 50 μg/ml gentamicin and 10% fetal calf serum. Cells were routinely kept as monolayer cultures at 37° C. in a humidified 5% CO2 atmosphere. Cells were passaged once a week using a trypsin/EDTA solution at a split ratio of 1:40. All media and supplements were obtained from Life Technologies. Cells were free of mycoplasma contamination as determined using the Gen-Probe Mycoplasma Tissue Culture kit (supplier: BioMerieux).
Cells were seeded in NUNC™ 96-well culture plates (Supplier: Life Technologies) and allowed to adhere to the plastic overnight. Densities used for plating were 1500 cells per well in a total volume of 200 μl medium. After cell adhesion to the plates, medium was changed and drugs and/or solvents were added to a final volume of 200 μl. Following four days of incubation, medium was replaced by 200 μl fresh medium and cell density and viability was assessed using an MTT-based assay. To each well, 25 μl MTT solution was added and the cells were further incubated for 2 hours at 37° C. The medium was then carefully aspirated and the blue MTT-formazan product was solubilized by addition of 25 μl glycine buffer followed by 100 μl of DMSO. […] Within an experiment, the results for each experimental condition are the mean of 3 replicate wells. For initial screening purposes, compounds were tested at a single fixed concentration of 10^−6 M. For active compounds, the experiments were repeated to establish full concentration-response curves. For each experiment, controls (containing no drug) and a blank incubation (containing no cells or drugs) were run in parallel. The blank value was subtracted from all control and sample values. For each sample, the mean value for cell growth (in absorbance units) was expressed as a percentage of the mean value for cell growth of the control. […] Herein the effects of test compounds are expressed as pIC50 (the negative log value of the IC50-value)(see Table F-3).

[3] = target: histone deacetylase (HeLa nuclear extracts); assay: In vitro assay for inhibition of histone deacetylase with fluorescent-labelled substrate (C.1.b); format: biochemical; details: Fluor de Lys substrate
Experimental: The HDAC Fluorescent Activity Assay/Drug Discovery Kit of Biomol (cat.No: AK-500-0001) was used. The HDAC Fluorescent Activity Assay is based on the Fluor de Lys (Fluorogenic Histone deAcetylase Lysyl) substrate and developer combination. The Fluor de Lys substrate, comprises an acetylated lysine side chain. Deacetylation of the substrate sensitizes the substrate so that, in the second step, treatment with the Fluor de Lys developer produces a fluorophore.
After 30 min, 1 volume of the developer was added. […] For each experiment, controls (containing HeLa nuclear extract and buffer), a blank incubation (containing buffer but no HeLa nuclear extract) and samples (containing compound dissolved in DMSO and further diluted in buffer and HeLa nuclear extract) were run in parallel. In first instance, compounds were tested at a concentration of 10^−5M. […] All sample were tested 4 times. In each test the blank value was subtracted from both the control and the sample values. The control sample represented 100% of substrate deactylation. For each sample the fluorescence was expressed as a percentage of the mean value of the controls. […] Herein the effects of test compounds are expressed as pIC50 (the negative log value of the IC50-value) (see Table F-3).

[4] = target: histone deacetylase (HeLa nuclear extracts); assay: In vitro assay for inhibition of histone deacetylase with [3H]-labelled substrate (C.1.a); format: biochemical; details: [3H]-acetylated histone H4 peptide substrate
Experimental: As a substrate for measuring HDAC activity a synthetic peptide, i.e. the amino acids 14-21 of histone H4, was used. The substrate is biotinylated at the NH2-terminal part with a 6-aminohexanoic acid spacer, and is protected at the COOH-terminal part by an amide group and specifically [^3H]acetylated at lysine 16. The substrate, biotin-(6-aminohexanoic)Gly-Ala-([^3H]-acetyl-Lys-Arg-His-Arg-Lys-Val-NH2), was added in a buffer containing 25 mM Hepes, 1 M sucrose, 0.1 mg/ml BSA and 0.01% Triton X-100 at pH 7.4. After 30 min the deacetylation reaction was terminated by the addition of HCl and acetic acid. (final concentration 0.035 mM and 3.8 mM respectively). After stopping the reaction, the free ^3H-acetate was extracted with ethylacetate. After mixing and centrifugation, the radioactivity in an aliquot of the upper (organic) phase was counted in a β-counter.
For each experiment, controls (containing HeLa nuclear extract and DMSO without compound), a blank incubation (containing DMSO but no HeLa nuclear extract or compound) and samples (containing compound dissolved in DMSO and HeLa nuclear extract) were run in parallel. In first instance, compounds were tested at a concentration of 10^−5M. […] In each test the blank value was subtracted from both the control and the sample values. The control sample represented 100% of substrate deactylation. For each sample the radioactivity was expressed as a percentage of the mean value of the controls. […] Herein the effects of test compounds are expressed as pIC50 (the negative log value of the IC50-value) (see Table F-3).

SMILES	solubility [1] [µg/mL]	IC50 [2] [nM]	Enzymatic activity pIC50 C.1.b [3]	melting point [°C]	Enzymatic activity pIC50 C.1.a. [4]
CN(CCc1c[nH]c2ccccc12)CC1CCN(c2ncc(C(=O)NO)cn2)CC1 [Compound 3]		200		121	8.5
O=C(NO)c1cnc(N2CCC(NCc3c[nH]c4ccccc34)CC2)nc1 [Compound 7]		794			8.5
Cn1c(CNCC2CCN(c3ncc(C(=O)NO)cn3)CC2)cc2ccccc21 [Compound 11]	2800 (≈ 7.1 mM)	31.6	8.2		
CCCn1cc(CNCC2CCN(c3ncc(C(=O)NO)cn3)CC2)c2cc(Cl)ccc21 [Compound 27]		10	>9.0	171	
Cn1cc(CNCC2CCN(c3ncc(C(=O)NO)cn3)CC2)c2cccc(F)c21 [Compound 30]	2100 (≈ 5.09 mM)	31.6	9.0		
CCCn1cc(CNCC2CCN(c3ncc(C(=O)NO)cn3)CC2)c2cc3c(cc21)OCO3 [Compound 45]	1700 (≈ 3.64 mM)	200	9.0		
CCCn1cc(CCN(CC)CC2CCN(c3ncc(C(=O)NO)cn3)CC2)c2ccc(OC)cc21 [Compound 25]		100	7.6	80	
COc1ccc2c(c1)c(CNCC1CCN(c3ncc(C(=O)NO)cn3)CC1)cn2C [Compound 33]	1600 (≈ 3.77 mM)	31.6	10.0		
CCn1c(C)c(CCNC2CCN(c3ncc(C(=O)NO)cn3)CC2)c2ccccc21 [Compound 23]		31.6	8.4	182	
Cn1cc(CNCC2CCN(c3ncc(C(=O)NO)cn3)CC2)c2cc(C#N)ccc21 [Compound 55]	2000 (≈ 4.77 mM)	15.8	10.1		
Cn1cc(CNCC2CCN(c3ncc(C(=O)NO)cn3)CC2)c2c(F)cccc21 [Compound 39]	2000 (≈ 4.85 mM)	31.6	9.0		
COc1cc2c(CNCC3CCN(c4ncc(C(=O)NO)cn4)CC3)cn(C)c2cc1OC [Compound 60]	3100 (≈ 6.82 mM)	126	8.7		
Cn1ccc2ccc(CNCC3CCN(c4ncc(C(=O)NO)cn4)CC3)cc21 [Compound 50]	2400 (≈ 6.08 mM)	25.1	8.6		
Cn1ccc2cc(CNCC3CCN(c4ncc(C(=O)NO)cn4)CC3)ccc21 [Compound 44]	1800 (≈ 4.56 mM)	39.8	8.2		
Cn1ccc2cccc(CNCC3CCN(c4ncc(C(=O)NO)cn4)CC3)c21 [Compound 57]	2800 (≈ 7.1 mM)	25.1	10.2		
Cn1cc(CNCC2CCN(c3ncc(C(=O)NO)cn3)CC2)c2cc(Cl)ccc21 [Compound 32]	1500 (≈ 3.5 mM)	3.98	8.0		
CCN(CCc1cn(C)c2ccccc12)CC1CCN(c2ncc(C(=O)NO)cn2)CC1 [Compound 66]	1700 (≈ 3.89 mM)	39.8	>9.0		
Cc1cccc2c(CNCC3CCN(c4ncc(C(=O)NO)cn4)CC3)c[nH]c12 [Compound 14]	1700 (≈ 4.31 mM)	39.8	8.4		
O=C(NO)c1cnc(N2CCC(CNCc3c[nH]c4ccc(Cl)cc34)CC2)nc1 [Compound 2]		31.6	8.4	205	

Next, values leading:

solubility [1] [µg/mL]	IC50 [2] [nM]	Enzymatic activity pIC50 C.1.b [3]	melting point [°C]	Enzymatic activity pIC50 C.1.a. [4]	SMILES
1900 (≈ 4.5 mM)	25.1	8.5	83		CN(CCc1cn(C)c2ccccc12)CC1CCN(c2ncc(C(=O)NO)cn2)CC1 [Compound 21]
2700 (≈ 6.61 mM)	7.94	8.4			Cc1ccc2c(CNCC3CCN(c4ncc(C(=O)NO)cn4)CC3)cn(C)c2c1 [Compound 79]
	501			8.2	Cn1cc(CNC2CCN(c3ncc(C(=O)NO)cn3)CC2)c2ccccc21 [Compound 6]
2500 (≈ 5.92 mM)	63.1	>9.0			CCN(Cc1cn(C)c2ccccc12)CC1CCN(c2ncc(C(=O)NO)cn2)CC1 [Compound 68]
	63.1	9.1	183		Cn1cc(CCN(CC2CCN(c3ncc(C(=O)NO)cn3)CC2)S(C)(=O)=O)c2cc(Cl)ccc21 [Compound 22]
	31.6	>9.0	188		Cn1cc(CCNCC2CCN(c3ncc(C(=O)NO)cn3)CC2)c2cc(Cl)ccc21 [Compound 26]
4000 (≈ 9.12 mM)	10	8.8			COCCn1cc(CNCC2CCN(c3ncc(C(=O)NO)cn3)CC2)c2ccccc21 [Compound 47]
1600 (≈ 3.65 mM)	316	7.6	160		COc1ccc2c(CCNCC3CCN(c4ncc(C(=O)NO)cn4)CC3)cn(C)c2c1 [Compound 24]
2500 (≈ 6.12 mM)	2.51	8.7			Cc1ccc2c(c1)c(CNCC1CCN(c3ncc(C(=O)NO)cn3)CC1)cn2C [Compound 36]
	79.4	8.1	80		Cc1c(CCNCC2CCN(c3ncc(C(=O)NO)cn3)CC2)c2ccccc2n1C [Compound 28]
2700 (≈ 6.18 mM)	7.94	9.5	90		CCN(Cc1cn(CC)c2ccccc12)CC1CCN(c2ncc(C(=O)NO)cn2)CC1 [Compound 20]
2100 (≈ 4.81 mM)	15.8	8.5			CCCCn1cc(CNCC2CCN(c3ncc(C(=O)NO)cn3)CC2)c2ccccc21 [Compound 43]
	79.4	8.0	174		Cn1cc(CCNCC2CCN(c3ncc(C(=O)NO)cn3)CC2)c2ccccc21 [Compound 19]
